Patent publication US20070009503A1, “Antibiotic, Compositions Containing the Antibiotic, and Methods for Administering the Antibiotic and/or Said Compositions to Livestock” (priority 2004, published 2007)
Where no end group is shown, it is not given here.

Tested on: Lactobacillus sakei JCM1157
Assay: Growth inhibition zones on MRS agar plates containing protease Umamizyme G, overlaid with indicator strain
Format: cell-based
Conditions: Example 2, protease 0 U/mL
Description: The lactic acid bacterium Weissella sp. AJ110263 (FERM P-19577), isolated from fermented milk matsoon, and the lactic acid bacteria Pediococcus pentosaceus JCM5885, Pediococcus pentosaceus JCM5890, Lactobacillus plantarum JCM1149, and Lactobacillus salivarius JCM1231, obtained from type cultures, were precultured and cultured on MRS liquid medium (Table 1 above). The culture temperature was 30° C. for Weissella sp. and 37° C. for the other strains. The above lactic acid bacteria were inoculated onto and cultured for 24 hours on MRS agar medium plates to which “Umamizyme G”, a protease derived from Aspergillus, had been added in quantities of 0 U/mL (none added), 200 U/ML, and 400 U/mL. In culturing, 100 mL of MRS medium was added to a 500 mL Sakaguchi flask, […] was inoculated, and the medium was shaken 100 times/min.
These plates were cultured for 24 hours at 30° C., resulting in the formation of growth inhibition zones in the indicator strains (Table 10 below).
Lactococcus lactis NCD0497 (a bacterium producing nisin A) and Lactococcus lactis NCIMB702054 (a bacterium producing nisin Z) were separately cultured in MRS liquid medium at 30° C. In the same manner as in Example 1, antibiotic evaluation was conducted using Lactobacillus sakei strain JCM1157 as an indicator strain. […]

Substance: Nisin A: nisin A 1,000 IU/mL solution made by ICN Biomedical, spotted without bacterial strains (ITSISLCTPGCKTGALMGCNMKTATCHCSIHVSK; also: lantibiotic, lanthionine bridges and dehydro residues not placed; UniProt P13068 24-57, looked up)
- diameters of the proliferation inhibition zones: 30
